Measurements as given in the NIST ThermoML archive (doi:10.1021/je800751m).

Test: excess molar enthalpy (molar enthalpy of mixing); xn = mol fraction of the nth substance listed
Settings: 298.15 K, 101 kPa, Liquid, Flow calorimetry

C1CCCCC1 [cyclohexane] + CCCCO
Settings	excess molar enthalpy [kcal/mol]
x1 = 0.0503	0.0163
x1 = 0.0998	0.0346
x1 = 0.1502	0.052
x1 = 0.1998	0.0685
x1 = 0.2502	0.0836
x1 = 0.2997	0.0974
x1 = 0.35	0.1103
x1 = 0.4002	0.122
x1 = 0.4503	0.1321
x1 = 0.5003	0.1404
x1 = 0.5501	0.1466
x1 = 0.5997	0.1505
x1 = 0.6501	0.1517
x1 = 0.7002	0.1498
x1 = 0.7501	0.1445
x1 = 0.7996	0.1355
x1 = 0.85	0.123
x1 = 0.9	0.105
x1 = 0.9496	0.0799
